# Measured values published in patent US20210008028A1, “COMPOSITIONS AND METHODS FOR TREATING DIARRHEAL DISEASES” (VANESSA RESEARCH, INC., priority 2018, published 2021).
# Test system: CTx-induced fluid secretion in the mouse intestine
# Test: Cholera-toxin induced closed-loop mouse diarrheal model, individual polyphenols and their combination
# Format: in vivo
# Conditions: for Concentration that did not have any effect on the CTx-induced fluid secretion: individual compound, CTx 1 μg per loop; for Effect on fluid accumulation elicited by CTx: individual polyphenols, dose-dependent
# Method: Following identification, individual reagents of cyanidin, delphinidin, epicatechin gallate and epigallocatechin gallate were acquired from ChromaDex (Chromadex, Irvine, Calif., USA) and tested in the same cholera-toxin induced closed-loop mouse diarrheal model described above. We sought and resolved the IC^50 concentration of each individual component as relevant for the treatment of cholera-toxin induced intestinal secretion.
# Mice (19-35 g) were fasted for 24-48 h, weighed and anesthetized with Avertin Sigma-Aldrich, St. Louise, Mo., USA) (250 mg/kg IP induction dose f.b. 2.6 mg IP every 30-45 minutes as needed for maintenance of anesthesia). Body temperature was maintained at 37-38° C. using a heating pad.
# Abdomen was opened. Small, and part of the large intestine were identified. 2-4 cm loops were ligated in the proximal jejunum beginning immediately downstream of Treitz ligament. Loops were separated by 1-2 cm of intervening small intestine. After ligation, one loop was injected with 100 μl of PBS, second loop was injected with CTx solution (Cayman chemicals, 1 μg in 100 μl PBS and third loop was injected with CTx and polyphenol solution (Chromadex, Irvine, Calif., USA) in 100 μl of PBS. Injected loops were photographed and carefully placed back into the abdominal cavity and then abdomen was closed with two sutures. After 4 to 6-hour incubation, animal was euthanized and entire length of small intestine, cecum and ascending transverse colon were removed as a single prep. Loops were excised, trimmed of fat, measured and weighted. Mice were euthanized by cervical dislocation or an overdose injection of Avertin. All animal protocols were approved by the Laboratory Animal Ethical Committee of Vanessa Research Inc. The loop weight/length ratio was calculated.
# Flavan-3-ols and gallotannins stock solutions (stock dilutions (stored at −20 C)) and working dilutions (PBS) were designated and prepared as follows:
# F1A—Cyanidin chloride (Chromadex, ASB-00003955-005 Lot #00003955-041) 5 mg dissolved in 1 ml methanol (Sigma-Aldrich, Saint Louise, Mo., USA) to 5 mg/ml stock. Original concentration used in experiments 0.05 mg/ml. Serial dilutions from 1:10 to 1:100,000 with increments of 1:10 were prepared for experiments.
# F1B—Delphinidin chloride (Chromadex, ASB-00004125-001 Lot #00004125-504) 1 mg dissolved in 143 ul methanol to 7 mg/ml stock. Original concentration used in experiments 0.07 mg/ml. Serial dilutions from 1:10 to 1:100,000 with increments of 1:10 were prepared for experiments.
# F1C—Epicatechin gallate (Chromadex, ASB-00005135-005 Lot #00005135-523) 5 mg dissolved in 1 ml methanol to 5 mg/ml stock. Original concentration used in experiments […] (1:50 dilution of 5 mg/ml stock). Serial dilutions from 1:10 to 1:100,000 with increments of 1:10 were prepared for experiments.
# F1D—Epigallocatechin gallate (Chromadex, ASB-00005150-005 Lot #00005150-008) 5 mg dissolved in 1 ml methanol to 5 mg/ml stock. Original concentration used in experiments […] (1:33.4 of 5 mg/ml stock). Serial dilutions from 1:10 to 1:100,000 with increments of 1:10 were prepared for experiments.
# However, in order to confirm or exclude the idea of synergism between multiple polyphenols in exertion of the anti-secretory effect following induction of fluid secretion with CTx, we attempted a treatment with a combination of all 4 polyphenols in the concentrations as indicated in Table 1. The ratio of concentrations (mg/ml) of individual members (cyaniding:delphinidin:epicatechin gallate:epigallocatechin gallate) in the combination was derived from Table 1 as 500:70:1:150 (weight ratio) accordingly.
# Data analysis was done as follows: The formula was used as adapted from Yamamoto K., 1979:
# Mass accumulation=Tm−(Cm/CL)×TL
# After determining fluid accumulation in treated and untreated samples, a percent reduction in mass was performed using the mass obtained from the previous formula
# 5. The certain variables were removed based on the Exclusion Criteria for Data: […]
SMILES,Concentration that did not have any effect on the CTx-induced fluid secretion,Effect on fluid accumulation elicited by CTx
"Oc1cc(O)c2cc(O)c(-c3ccc(O)c(O)c3)[o+]c2c1.[Cl-] [F1A, Cyanidin chloride]",5e-06 mg/mL,significantly reduced fluid accumulation
"Oc1cc(O)c2cc(O)c(-c3cc(O)c(O)c(O)c3)[o+]c2c1 [F1B, Delphinidin chloride]",7e-08 mg/mL,significantly reduced fluid accumulation
"O=C(O[C@@H]1Cc2c(O)cc(O)cc2O[C@@H]1c1ccc(O)c(O)c1)c1cc(O)c(O)c(O)c1 [F1C, Epicatechin gallate]",1e-08 mg/mL,significantly reduced fluid accumulation
"O=C(O[C@@H]1Cc2c(O)cc(O)cc2O[C@@H]1c1cc(O)c(O)c(O)c1)c1cc(O)c(O)c(O)c1 [F1D, Epigallocatechin gallate]",1e-06 mg/mL,significantly reduced fluid accumulation
